Source: patent US10597388B2, “Pyridazinone herbicides” (FMC CORPORATION, priority 2014, dated 2020)

Experiments:
Assay in all cases: Test D controlled growth environment herbicide test, pre- and postemergence
Assay type in all cases: in vivo
[1] = tested on: barley, winter (winter barley, Hordeum vulgare)
Method in brief: (§1)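 Rating is visual, 0–100 scale (100 = complete control), made against untreated plants 14–21 d after treatment in controlled growth conditions. Postemergence sprays went onto 1- to 4-leaf plants in peat medium; preemergence sprays onto silt loam after sowing; formulation included a surfactant.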

[2] = tested on: blackgrass (Alopecurus myosuroides)
Method in brief: as §1

[3] = tested on: bromegrass, downy (downy bromegrass, Bromus tectorum)
Method in brief: as §1

[4] = tested on: buckwheat, wild (wild buckwheat, Polygonum convolvulus)
Method in brief: as §1

[5] = tested on: canarygrass (Phalaris minor)
Method in brief: as §1

[6] = tested on: chamomile (scentless chamomile, Matricaria inodora)
Method in brief: as §1

[7] = tested on: chickweed (common chickweed, Stellaria media)
Method in brief: as §1

[8] = tested on: field poppy (Papaver rhoeas)
Method in brief: as §1

[9] = tested on: galium (catchweed bedstraw, Galium aparine)
Method in brief: as §1

[10] = tested on: lambsquarters (Chenopodium album)
Method in brief: as §1

[11] = tested on: oilseed rape (Brassica napus)
Method in brief: as §1

[12] = tested on: ryegrass, Italian (Italian ryegrass, Lolium multiflorum)
Method in brief: as §1

[13] = tested on: speedwell (bird's-eye speedwell, Veronica persica)
Method in brief: as §1

[14] = Postemergence, 31 g ai/ha, scale 0 to 100 (0 no effect, 100 complete control)
[15] = Postemergence, 125 g ai/ha, visual rating on scale 0 (no effect) to 100 (complete control), 14 to 21 d
[16] = Postemergence, 250 g ai/ha, scale 0 to 100 (0 no effect, 100 complete control)
[17] = Preemergence, 62 g ai/ha, scale 0 to 100 (0 no effect, 100 complete control)
[18] = Preemergence, 125 g ai/ha, scale 0 to 100 (0 no effect, 100 complete control)
[19] = Preemergence, 250 g ai/ha, scale 0 to 100 (0 no effect, 100 complete control)
[20] = postemergence, 62 g ai/ha, scale 0 to 100, 0 no effect, 100 complete control

CCOC(=O)Oc1c(C)nn(C)c(=O)c1-c1c(C)ccc2ccccc12 [Compound 73]
70: Plant response rating, Blackgrass [2, 20] | Plant response rating, Bromegrass, Downy [3, 15] | Plant response rating, Canarygrass [5, 20] | Chamomile plant response rating [6, 14] | Plant response rating (scale of 0 to 100), Field Poppy ([8]; Preemergence, 31 g ai/ha) | Plant response rating, Oilseed Rape [11, 19] | Plant response rating, Oilseed Rape [11, 20] | Ryegrass, Italian plant response rating [12, 14] | Speedwell plant response rating [13, 14]
80: Plant response rating, Blackgrass [2, 15] | Plant response rating, Blackgrass [2, 18] | Plant response rating, Canarygrass [5, 15] | Plant response rating (scale of 0 to 100), Canarygrass ([5]; Preemergence, 31 g ai/ha) | Plant response rating, Galium [9, 17] | Plant response rating, Galium [9, 18]
98: Plant response rating, Ryegrass, Italian [12, 16]
85: Plant response rating, Blackgrass [2, 19] | Plant response rating, Bromegrass, Downy [3, 16] | Plant response rating, Canarygrass [5, 17] | Plant response rating, Chamomile [6, 20] | Plant response rating, Ryegrass, Italian [12, 20]
15: Barley, Winter plant response rating [1, 14] | Plant response rating, Barley, Winter [1, 20]
50: Plant response rating (scale of 0 to 100), Blackgrass ([2]; Preemergence, 31 g ai/ha) | Plant response rating, Bromegrass, Downy [3, 18]
20: Plant response rating, Barley, Winter [1, 15] | Plant response rating (scale of 0 to 100), Bromegrass, Downy ([3]; Preemergence, 31 g ai/ha)
30: Plant response rating, Buckwheat, Wild [4, 19]
0: Plant response rating (scale of 0 to 100), Buckwheat, Wild ([4]; Preemergence, 31 g ai/ha) | Plant response rating, Buckwheat, Wild [4, 17] | Plant response rating (scale of 0 to 100), Oilseed Rape ([11]; Preemergence, 31 g ai/ha) | Plant response rating, Oilseed Rape [11, 18]
65: Blackgrass plant response rating [2, 14] | Oilseed Rape plant response rating [11, 14]
75: Plant response rating, Barley, Winter [1, 19] | Field Poppy plant response rating [8, 14] | Plant response rating, Oilseed Rape [11, 15]
25: Bromegrass, Downy plant response rating [3, 14]
95: Buckwheat, Wild plant response rating [4, 14] | Plant response rating (scale of 0 to 100), Chickweed ([7]; Preemergence, 31 g ai/ha) | Plant response rating, Chickweed [7, 20] | Galium plant response rating [9, 14] | Lambsquarters plant response rating [10, 14] | Plant response rating (scale of 0 to 100), Lambsquarters ([10]; Preemergence, 31 g ai/ha) | Plant response rating, Lambsquarters [10, 17] | Plant response rating, Lambsquarters [10, 18] | Plant response rating, Lambsquarters [10, 20] | Plant response rating, Oilseed Rape [11, 16] | Plant response rating, Ryegrass, Italian [12, 15] | Plant response rating (scale of 0 to 100), Ryegrass, Italian ([12]; Preemergence, 31 g ai/ha)
55: Plant response rating, Bromegrass, Downy [3, 20]
90: Plant response rating, Blackgrass [2, 16] | Plant response rating, Bromegrass, Downy [3, 19] | Plant response rating, Canarygrass [5, 16] | Plant response rating, Canarygrass [5, 18] | Plant response rating, Chamomile [6, 15] | Chickweed plant response rating [7, 14] | Plant response rating, Chickweed [7, 17] | Plant response rating, Galium [9, 19]
35: Plant response rating, Barley, Winter [1, 16]
5: Plant response rating (scale of 0 to 100), Barley, Winter ([1]; Preemergence, 31 g ai/ha) | Plant response rating, Oilseed Rape [11, 17]
40: Plant response rating, Barley, Winter [1, 17] | Plant response rating, Bromegrass, Downy [3, 17] | Plant response rating (scale of 0 to 100), Galium ([9]; Preemergence, 31 g ai/ha)
100: Plant response rating, Buckwheat, Wild [4, 15] | Plant response rating, Buckwheat, Wild [4, 16] | Plant response rating, Buckwheat, Wild [4, 20] | Plant response rating, Canarygrass [5, 19] | Plant response rating, Chamomile [6, 16] | Plant response rating, Chickweed [7, 15] | Plant response rating, Chickweed [7, 16] | Plant response rating, Chickweed [7, 18] | Plant response rating, Chickweed [7, 19] | Plant response rating, Field Poppy [8, 15] | Plant response rating, Field Poppy [8, 16] | Plant response rating, Field Poppy [8, 17] | Plant response rating, Field Poppy [8, 18] | Plant response rating, Field Poppy [8, 19] | Plant response rating, Field Poppy [8, 20] | Plant response rating, Galium [9, 15] | Plant response rating, Galium [9, 16] | Plant response rating, Galium [9, 20] | Plant response rating, Lambsquarters [10, 15] | Plant response rating, Lambsquarters [10, 16] | Plant response rating, Lambsquarters [10, 19] | Plant response rating, Ryegrass, Italian [12, 17] | Plant response rating, Ryegrass, Italian [12, 18] | Plant response rating, Ryegrass, Italian [12, 19] | Plant response rating, Speedwell [13, 15] | Plant response rating, Speedwell [13, 16] | Plant response rating (scale of 0 to 100), Speedwell ([13]; Preemergence, 31 g ai/ha) | Plant response rating, Speedwell [13, 17] | Plant response rating, Speedwell [13, 18] | Plant response rating, Speedwell [13, 19] | Plant response rating, Speedwell [13, 20]
60: Plant response rating, Barley, Winter [1, 18] | Plant response rating, Blackgrass [2, 17] | Plant response rating, Buckwheat, Wild [4, 18] | Canarygrass plant response rating [5, 14]
